Results: EPA's ToxRefDB 2

Key:
[1] = tested on: rat; details: Multigenerational reproductive toxicity study, sprague dawley, Oral, Feed, dose end: 2 generation, systemic / hematology / erythrocyte (rbc) count differential / erythrocyte (rbc) + systemic / hematology / hematocrit (hct) / hematocrit (…
[2] = tested on: rat; details: Multigenerational reproductive toxicity study, wistar, Oral, Feed, dose end: 2 generation
[3] = tested on: rat; details: Combined chronic toxicity/carcinogenicity, fischer, Oral, Feed, dose end: 104 week
[4] = tested on: rat; details: Subchronic oral toxicity in rodents, sprague dawley, Feed, dose end: 6 month
[5] = tested on: dog; details: Chronic toxicity, beagle, Oral, Feed, dose end: 24 month
[6] = tested on: rabbit; details: Prenatal developmental toxicity study, himalayan, Oral, Gavage/Intubation, dose end: 28 GD
[7] = tested on: rat; details: Prenatal developmental toxicity study, wistar, Oral, Gavage/Intubation, dose end: 19 GD
[8] = tested on: rat; details: Multigenerational reproductive toxicity study, wistar, Oral, Feed, dose end: 2 generation; remark: listed apart in the source
[9] = tested on: rat; details: Subchronic oral toxicity in rodents, sprague dawley, Gavage/Intubation, dose end: 19 GD
[10] = tested on: rat; details: Prenatal developmental toxicity study, sprague dawley, Oral, Gavage/Intubation, dose end: 17 GD
[11] = tested on: rabbit; details: Prenatal developmental toxicity study, new zealand white, Oral, Gavage/Intubation, dose end: 18 GD
[12] = tested on: rabbit; details: Prenatal developmental toxicity study, himalayan, Oral, Gavage/Intubation, dose end: 28 GD; remark: listed apart in the source
[13] = tested on: rat; details: Prenatal developmental toxicity study, sprague dawley, Oral, Gavage/Intubation, dose end: 20 GD
[14] = tested on: rat; details: Multigenerational reproductive toxicity study, sprague dawley, Oral, Feed, dose end: 2 generation
[15] = tested on: rabbit; details: Prenatal developmental toxicity study, new zealand white, Oral, Water, dose end: 19 GD
[16] = group: maternal, reproductive / reproductive performance / fertility / fertility + reproductive / reproductive performance / precoital interval / precoital …
[17] = group: offspring, developmental / offspring survival late / viability index / viability index
[18] = group: offspring, developmental / offspring survival late / viability index / viability index + reproductive / offspring survival early / dead fetuses / dead …
[19] = group: parental, systemic / in life observation / body weight / body weight + systemic / in life observation / body weight / body weight gain + systemic / in…
[20] = group: reproductive, reproductive / reproductive performance / gestational length / gestational length + reproductive / reproductive performance / gestation …
[21] = group: cholinesterase, cholinesterase / cholinesterase / cholinesterase / brain cholinesterase (che) + cholinesterase / cholinesterase / cholinesterase / plasma …
[22] = group: cholinesterase, cholinesterase / cholinesterase / cholinesterase / plasma cholinesterase (che)
[23] = group: systemic, systemic / clinical chemistry / cholesterol / cholesterol + systemic / hematology / erythrocyte (rbc) count differential / erythrocyte (rbc…
[24] = group: cholinesterase, cholinesterase / cholinesterase / cholinesterase / erythrocyte cholinesterase (che) + cholinesterase / cholinesterase / cholinesterase / …
[25] = group: systemic, systemic / clinical chemistry / alanine aminotransferase (alt/sgpt) / alanine aminotransferase (alt/sgpt)
[26] = group: cholinesterase, cholinesterase / cholinesterase / cholinesterase / erythrocyte cholinesterase (che)
[27] = group: systemic, systemic / organ weight / liver / absolute + systemic / organ weight / liver / relative to body weight
[28] = group: developmental, developmental / developmental malformation / liver / [other]
[29] = group: maternal, reproductive / reproductive performance / aborted / aborted + systemic / in life observation / body weight / body weight gain + systemic / …
[30] = group: developmental, developmental / developmental malformation / aortic arch / narrowed + developmental / developmental malformation / bone / [other] + …
[31] = group: developmental, developmental / developmental malformation / bone / incomplete ossification + developmental / developmental malformation / bone / wavy + …
[32] = group: maternal, systemic / in life observation / body weight / body weight + systemic / in life observation / body weight / body weight gain + systemic / in…
[33] = group: offspring, systemic / in life observation / body weight / offspring (pup) weight + systemic / in life observation / body weight / offspring (pup) …
[34] = group: parental, systemic / in life observation / body weight / body weight gain
[35] = group: developmental, developmental / developmental malformation / bone / ossification sites + developmental / developmental malformation / bone / supernumerary
[36] = group: systemic, systemic / in life observation / body weight / body weight + systemic / in life observation / body weight / body weight gain + systemic / in…
[37] = group: developmental, developmental / developmental malformation / bone / incomplete ossification + systemic / in life observation / body weight / fetal weight
[38] = group: maternal, systemic / in life observation / body weight / body weight gain + systemic / in life observation / clinical signs / alopecia + systemic / in…
[39] = group: developmental, developmental / developmental malformation / bone / incomplete ossification + developmental / developmental malformation / bone / short + …
[40] = group: maternal, reproductive / reproductive performance / resorptions / resorptions + systemic / in life observation / body weight / body weight + systemic…
[41] = group: developmental, developmental / developmental malformation / general / crown-rump length + systemic / in life observation / body weight / fetal weight
[42] = group: maternal, reproductive / reproductive performance / premature delivery / premature delivery + systemic / in life observation / body weight / body …
[43] = group: developmental, developmental / developmental malformation / bone / [other] + developmental / developmental malformation / bone / delayed ossification + …
[44] = group: maternal, systemic / in life observation / body weight / body weight gain
[45] = group: parental, systemic / organ weight / kidney / absolute + systemic / organ weight / kidney / relative to body weight + systemic / pathology microscopic…
[46] = group: developmental, developmental / developmental malformation / other / other + systemic / in life observation / body weight / fetal weight
[47] = group: maternal, systemic / in life observation / clinical signs / defecation + systemic / in life observation / food consumption / food consumption + …

## O=C(Nc1ccc(F)cc1)c1cccc(Oc2cccc(C(F)(F)F)c2)n1 [Picolinafen]
[1]; group: offspring
  LEL: 21 mg/kg/day
  LOAEL: > 43 mg/kg/day
  NEL: 4.3 mg/kg/day
  NOAEL: ≥ 43 mg/kg/day
[1]; group: parental
  LEL: 19 mg/kg/day
  LOAEL: 19 mg/kg/day
  NEL: 3.7 mg/kg/day
  NOAEL: 3.7 mg/kg/day

## Fc1ccc([C@@]2(Cn3cncn3)O[C@@H]2c2ccccc2Cl)cc1 [Epoxiconazole]
[2]; [16]
  LEL: 22.1 mg/kg/day
  LOAEL: 22.1 mg/kg/day
  NEL: 2.17 mg/kg/day
  NOAEL: 2.17 mg/kg/day
[2]; [17]
  LEL: 0.85 mg/kg/day
  NEL: < 0.85 mg/kg/day
[2]; [18]
  LOAEL: 22.1 mg/kg/day
  NOAEL: 2.17 mg/kg/day
[2]; [19]
  LEL: 22.1 mg/kg/day
  LOAEL: 22.1 mg/kg/day
  NEL: 2.17 mg/kg/day
  NOAEL: 2.17 mg/kg/day
[2]; [20]
  LEL: 31.9 mg/kg/day
  LOAEL: 31.9 mg/kg/day
  NEL: 2.41 mg/kg/day
  NOAEL: 2.41 mg/kg/day

## CCOP(=S)(OCC)Oc1nc(Cl)c(Cl)cc1Cl [Chlorpyrifos]
[3]; [21]
  LOAEL: 1 mg/kg/day
  NEL: 0.05 mg/kg/day
  NOAEL: 0.1 mg/kg/day
[3]; [22]
  LEL: 0.1 mg/kg/day
[3]; group: systemic, systemic / clinical chemistry / cholesterol / cholesterol + systemic / clinical chemistry / alkaline phosphatase (alp/alk) / alkaline …
  LEL: 1 mg/kg/day
[3]; [23]
  LOAEL: > 10 mg/kg/day
  NOAEL: ≥ 10 mg/kg/day
[3]; group: systemic, systemic / clinical chemistry / cholesterol / cholesterol + systemic / in life observation / body weight / body weight + systemic / …
  NEL: 0.1 mg/kg/day
[4]; [24]
  LEL: 0.75 mg/kg/day
  LOAEL: 0.75 mg/kg/day
  NEL: 0.15 mg/kg/day
  NOAEL: 0.15 mg/kg/day
[4]; [25]
  LEL: 0.15 mg/kg/day
  LOAEL: > 0.75 mg/kg/day
  NEL: 0.03 mg/kg/day
  NOAEL: ≥ 0.75 mg/kg/day
[5]; [26]
  LEL: 0.01 mg/kg/day
  NEL: < 0.01 mg/kg/day
[5]; [22]
  LOAEL: 0.03 mg/kg/day
[5]; group: cholinesterase, cholinesterase / cholinesterase / cholinesterase / plasma cholinesterase (che) + cholinesterase / cholinesterase / cholinesterase / …
  NOAEL: 0.01 mg/kg/day
[5]; [27]
  LEL: 3 mg/kg/day
  LOAEL: > 3 mg/kg/day
  NEL: 1 mg/kg/day
  NOAEL: ≥ 3 mg/kg/day

## CCOC(=O)OC1=C(c2cc(C)ccc2C)C(=O)NC12CCC(OC)CC2 (stereo not drawn) [Spirotetramat]
[6]; [28]
  LEL: 160 mg/kg/day
  LOAEL: > 160 mg/kg/day
  NEL: 40 mg/kg/day
  NOAEL: ≥ 160 mg/kg/day
[6]; [29]
  LEL: 40 mg/kg/day
  LOAEL: 40 mg/kg/day
  NEL: 10 mg/kg/day
  NOAEL: 10 mg/kg/day
[7]; [30]
  LOAEL: 1000 mg/kg/day
  NOAEL: 140 mg/kg/day
[7]; [31]
  LEL: 20 mg/kg/day
  NEL: < 20 mg/kg/day
[7]; group: maternal, systemic / in life observation / body weight / body weight
  LEL: 140 mg/kg/day
[7]; [32]
  LOAEL: 1000 mg/kg/day
  NEL: 20 mg/kg/day
  NOAEL: 140 mg/kg/day
[8]; [33]
  LOAEL: 487 mg/kg/day
  NEL: 19.3 mg/kg/day
  NOAEL: 79.5 mg/kg/day
[8]; group: offspring, systemic / in life observation / body weight / offspring (pup) weight gain
  LEL: 79.5 mg/kg/day
[8]; [34]
  LEL: 419 mg/kg/day
  LOAEL: 419 mg/kg/day
  NEL: 70.7 mg/kg/day
  NOAEL: 70.7 mg/kg/day

## CC(=O)OC(C)(C)C [tert-Butyl acetate]
[9]; [35]
  LEL: 800 mg/kg/day
  LOAEL: > 1600 mg/kg/day
  NEL: 400 mg/kg/day
  NOAEL: ≥ 1600 mg/kg/day
[9]; [36]
  LEL: 1600 mg/kg/day
  LOAEL: > 1600 mg/kg/day
  NEL: 800 mg/kg/day
  NOAEL: ≥ 1600 mg/kg/day

## Cc1cccc(C)c1NC(=O)c1ccc(N)cc1 [Ameltolide]
[10]; [37]
  LEL: 50 mg/kg/day
  LOAEL: > 50 mg/kg/day
  NEL: 25 mg/kg/day
  NOAEL: ≥ 50 mg/kg/day
[10]; [38]
  LEL: 50 mg/kg/day
  LOAEL: > 50 mg/kg/day
  NEL: 25 mg/kg/day
  NOAEL: ≥ 50 mg/kg/day
[11]; [39]
  LEL: 100 mg/kg/day
  LOAEL: > 100 mg/kg/day
  NEL: 50 mg/kg/day
  NOAEL: ≥ 100 mg/kg/day
[11]; [40]
  LEL: 100 mg/kg/day
  LOAEL: > 100 mg/kg/day
  NEL: 50 mg/kg/day
  NOAEL: ≥ 100 mg/kg/day

## O=C(NCc1ncc(C(F)(F)F)cc1Cl)c1c(Cl)cccc1Cl [Fluopicolide]
[12]; [41]
  LEL: 60 mg/kg/day
  LOAEL: 60 mg/kg/day
  NEL: 20 mg/kg/day
  NOAEL: 20 mg/kg/day
[12]; [42]
  LEL: 60 mg/kg/day
  LOAEL: 60 mg/kg/day
  NEL: 20 mg/kg/day
  NOAEL: 20 mg/kg/day
[13]; [43]
  LEL: 700 mg/kg/day
  LOAEL: 700 mg/kg/day
  NEL: 60 mg/kg/day
  NOAEL: 60 mg/kg/day
[13]; [44]
  LEL: 700 mg/kg/day
  LOAEL: 700 mg/kg/day
  NEL: 60 mg/kg/day
  NOAEL: 60 mg/kg/day
[14]; [33]
  LEL: 180 mg/kg/day
  LOAEL: 180 mg/kg/day
  NEL: 43.7 mg/kg/day
  NOAEL: 43.7 mg/kg/day
[14]; [45]
  LEL: 145 mg/kg/day
  LOAEL: 145 mg/kg/day
  NEL: 36.4 mg/kg/day
  NOAEL: 36.4 mg/kg/day

## [Na+].[O-][Cl+][O-] [Sodium chlorite]
[15]; [46]
  LEL: 35.5 mg/kg/day
  LOAEL: 35.5 mg/kg/day
  NEL: 13 mg/kg/day
  NOAEL: 13 mg/kg/day
[15]; [47]
  LEL: 35.5 mg/kg/day
  LOAEL: 35.5 mg/kg/day
  NEL: 13 mg/kg/day
  NOAEL: 13 mg/kg/day
